The kinase profiling compilation of Christmann-Franck et al. (2016)

Tests used:
Test in all cases: KINOMEscan competition binding
Conditions in all cases: compound 10.0 µM
AAK1 (human) = AAK1 (human) (UniProt Q2M2I8)
ANKK1 (human) = ANKK1 (human) (UniProt Q8NFD2)
AURKB (human) = AURKB (human) (UniProt Q96GD4)
BLK (human) = BLK (human) (UniProt P51451)
CDK14 (human) = CDK14 (human) (UniProt O94921)
CDK3 (human) = CDK3 (human) (UniProt Q00526)
CDK4 CCND3 (human) = CDK4 CCND3 (human) (UniProt P11802+P30281)
CDK8 (human) = CDK8 (human) (UniProt P49336)
CLK3 (human) = CLK3 (human) (UniProt P49761)
CSK (human) = CSK (human) (UniProt P41240)
EGFR (human) = EGFR (human) (UniProt P00533)
EPHB4 (human) = EPHB4 (human) (UniProt P54760)
ERBB3 (human) = ERBB3 (human) (UniProt P21860)
ERBB4 (human) = ERBB4 (human) (UniProt Q15303)
HUNK (human) = HUNK (human) (UniProt P57058)
ICK (human) = ICK (human) (UniProt Q9UPZ9)
IRAK3 (human) = IRAK3 (human) (UniProt Q9Y616)
KDR (human) = KDR (human) (UniProt P35968)
[1] = test system: KIT (human), P10721 [V559D/V654A]
MAP2K3 (human) = MAP2K3 (human) (UniProt P46734)
MAP2K7 (human) = MAP2K7 (human) (UniProt O14733)
MAP3K10 (human) = MAP3K10 (human) (UniProt Q02779)
MAP3K13 (human) = MAP3K13 (human) (UniProt O43283)
MAP4K4 (human) = MAP4K4 (human) (UniProt O95819)
MAPK4 (human) = MAPK4 (human) (UniProt P31152)
MARK2 (human) = MARK2 (human) (UniProt Q7KZI7)
MET (human) = MET (human) (UniProt P08581)
NEK5 (human) = NEK5 (human) (UniProt Q6P3R8)
NIM1 (human) = NIM1 (human) (UniProt Q8IY84)
NTRK3 (human) = NTRK3 (human) (UniProt Q16288)
PDGFRA (human) = PDGFRA (human) (UniProt P16234)
PDPK1 (human) = PDPK1 (human) (UniProt O15530)
PIK3CB (human) = PIK3CB (human) (UniProt P42338)
PIK3CD (human) = PIK3CD (human) (UniProt O00329)
PIP4K2C (human) = PIP4K2C (human) (UniProt Q8TBX8)
PKMYT1 (human) = PKMYT1 (human) (UniProt Q99640)
PLK2 (human) = PLK2 (human) (UniProt Q9NYY3)
PRKACB (human) = PRKACB (human) (UniProt P22694)
PRKCQ (human) = PRKCQ (human) (UniProt Q04759)
PRKX (human) = PRKX (human) (UniProt P51817)
RPS6KA4 KD2 (human) = RPS6KA4 KD2 (human) (UniProt O75676)
STK24 (human) = STK24 (human) (UniProt Q9Y6E0)
TXK (human) = TXK (human) (UniProt P42681)

Chain of PIP4K2C (human) (Q8TBX8 whole entry, looked up): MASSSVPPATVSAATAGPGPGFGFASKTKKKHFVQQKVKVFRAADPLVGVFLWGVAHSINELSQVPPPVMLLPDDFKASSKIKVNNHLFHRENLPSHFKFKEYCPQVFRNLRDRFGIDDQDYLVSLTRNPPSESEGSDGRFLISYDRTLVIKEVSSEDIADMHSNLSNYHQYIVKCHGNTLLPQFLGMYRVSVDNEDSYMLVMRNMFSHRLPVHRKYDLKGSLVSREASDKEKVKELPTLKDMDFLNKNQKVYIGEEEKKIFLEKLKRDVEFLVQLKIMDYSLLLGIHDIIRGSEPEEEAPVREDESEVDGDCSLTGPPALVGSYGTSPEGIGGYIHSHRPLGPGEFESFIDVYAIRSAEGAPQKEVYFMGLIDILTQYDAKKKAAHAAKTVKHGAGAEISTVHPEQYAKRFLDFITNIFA
Chain of KIT (human), P10721 [V559D/V654A] (P10721 whole entry V559D/V654A, looked up): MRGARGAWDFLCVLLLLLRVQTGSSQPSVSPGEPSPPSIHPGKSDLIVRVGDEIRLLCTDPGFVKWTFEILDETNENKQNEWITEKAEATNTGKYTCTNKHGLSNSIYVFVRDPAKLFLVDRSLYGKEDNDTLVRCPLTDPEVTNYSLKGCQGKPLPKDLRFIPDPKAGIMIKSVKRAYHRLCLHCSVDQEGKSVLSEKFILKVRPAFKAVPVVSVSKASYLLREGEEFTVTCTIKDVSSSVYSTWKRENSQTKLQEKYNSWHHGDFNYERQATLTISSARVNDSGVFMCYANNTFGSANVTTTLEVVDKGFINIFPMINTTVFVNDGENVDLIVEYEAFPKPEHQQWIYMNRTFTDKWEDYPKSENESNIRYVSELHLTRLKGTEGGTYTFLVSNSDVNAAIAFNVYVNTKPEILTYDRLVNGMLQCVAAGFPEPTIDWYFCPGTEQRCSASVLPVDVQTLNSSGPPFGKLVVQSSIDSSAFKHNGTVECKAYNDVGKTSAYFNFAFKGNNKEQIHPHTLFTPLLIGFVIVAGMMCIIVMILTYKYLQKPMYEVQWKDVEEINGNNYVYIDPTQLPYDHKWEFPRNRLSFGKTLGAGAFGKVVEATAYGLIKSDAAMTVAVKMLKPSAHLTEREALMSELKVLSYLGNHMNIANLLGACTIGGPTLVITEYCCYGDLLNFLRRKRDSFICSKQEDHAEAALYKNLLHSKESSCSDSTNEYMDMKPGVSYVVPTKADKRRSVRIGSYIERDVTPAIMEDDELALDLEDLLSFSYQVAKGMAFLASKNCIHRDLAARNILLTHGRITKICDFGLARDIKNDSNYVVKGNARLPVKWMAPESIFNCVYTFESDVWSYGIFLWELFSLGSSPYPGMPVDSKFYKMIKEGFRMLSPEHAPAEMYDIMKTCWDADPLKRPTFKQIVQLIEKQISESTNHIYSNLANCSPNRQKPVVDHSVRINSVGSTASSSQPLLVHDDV
Chain of MAPK4 (human) (P31152 whole entry, looked up): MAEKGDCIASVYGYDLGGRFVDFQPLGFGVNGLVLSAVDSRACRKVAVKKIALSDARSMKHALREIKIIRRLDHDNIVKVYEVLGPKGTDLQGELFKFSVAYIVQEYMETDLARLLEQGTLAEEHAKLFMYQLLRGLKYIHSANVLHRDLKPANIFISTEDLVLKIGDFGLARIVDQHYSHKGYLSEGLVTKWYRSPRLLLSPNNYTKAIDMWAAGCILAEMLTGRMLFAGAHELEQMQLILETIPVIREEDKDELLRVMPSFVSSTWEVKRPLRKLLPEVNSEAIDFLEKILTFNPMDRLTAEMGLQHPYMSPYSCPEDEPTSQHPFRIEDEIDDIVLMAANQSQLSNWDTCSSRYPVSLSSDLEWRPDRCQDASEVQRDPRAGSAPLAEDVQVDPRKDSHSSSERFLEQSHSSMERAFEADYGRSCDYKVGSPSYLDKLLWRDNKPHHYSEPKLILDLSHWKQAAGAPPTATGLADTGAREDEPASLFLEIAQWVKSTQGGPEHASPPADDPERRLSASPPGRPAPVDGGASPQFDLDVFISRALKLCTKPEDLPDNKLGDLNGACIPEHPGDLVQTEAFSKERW
Chain of CDK14 (human) (O94921 whole entry, looked up): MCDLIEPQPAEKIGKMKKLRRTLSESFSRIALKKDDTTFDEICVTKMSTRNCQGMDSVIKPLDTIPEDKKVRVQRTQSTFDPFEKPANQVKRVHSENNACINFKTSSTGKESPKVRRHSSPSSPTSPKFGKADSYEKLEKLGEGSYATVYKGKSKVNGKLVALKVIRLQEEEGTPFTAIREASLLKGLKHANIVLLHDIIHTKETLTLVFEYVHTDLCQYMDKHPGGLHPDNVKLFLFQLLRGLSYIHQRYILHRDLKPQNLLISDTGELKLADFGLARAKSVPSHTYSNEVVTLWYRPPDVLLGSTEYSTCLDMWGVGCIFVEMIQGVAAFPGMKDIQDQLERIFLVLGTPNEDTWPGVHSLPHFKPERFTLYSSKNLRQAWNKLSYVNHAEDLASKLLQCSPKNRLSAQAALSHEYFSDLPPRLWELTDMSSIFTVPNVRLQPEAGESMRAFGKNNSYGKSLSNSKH
Chain of AURKB (human) (Q96GD4 whole entry, looked up): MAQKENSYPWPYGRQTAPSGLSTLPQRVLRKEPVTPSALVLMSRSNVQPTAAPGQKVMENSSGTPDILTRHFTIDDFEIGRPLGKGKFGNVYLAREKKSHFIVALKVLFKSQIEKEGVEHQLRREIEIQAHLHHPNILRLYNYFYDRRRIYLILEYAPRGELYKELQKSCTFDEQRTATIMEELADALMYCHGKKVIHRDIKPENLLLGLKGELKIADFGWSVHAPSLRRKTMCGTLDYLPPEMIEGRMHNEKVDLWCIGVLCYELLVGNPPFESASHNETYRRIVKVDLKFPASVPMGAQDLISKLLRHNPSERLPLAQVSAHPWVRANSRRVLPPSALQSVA
Chain of ICK (human) (Q9UPZ9 whole entry, looked up): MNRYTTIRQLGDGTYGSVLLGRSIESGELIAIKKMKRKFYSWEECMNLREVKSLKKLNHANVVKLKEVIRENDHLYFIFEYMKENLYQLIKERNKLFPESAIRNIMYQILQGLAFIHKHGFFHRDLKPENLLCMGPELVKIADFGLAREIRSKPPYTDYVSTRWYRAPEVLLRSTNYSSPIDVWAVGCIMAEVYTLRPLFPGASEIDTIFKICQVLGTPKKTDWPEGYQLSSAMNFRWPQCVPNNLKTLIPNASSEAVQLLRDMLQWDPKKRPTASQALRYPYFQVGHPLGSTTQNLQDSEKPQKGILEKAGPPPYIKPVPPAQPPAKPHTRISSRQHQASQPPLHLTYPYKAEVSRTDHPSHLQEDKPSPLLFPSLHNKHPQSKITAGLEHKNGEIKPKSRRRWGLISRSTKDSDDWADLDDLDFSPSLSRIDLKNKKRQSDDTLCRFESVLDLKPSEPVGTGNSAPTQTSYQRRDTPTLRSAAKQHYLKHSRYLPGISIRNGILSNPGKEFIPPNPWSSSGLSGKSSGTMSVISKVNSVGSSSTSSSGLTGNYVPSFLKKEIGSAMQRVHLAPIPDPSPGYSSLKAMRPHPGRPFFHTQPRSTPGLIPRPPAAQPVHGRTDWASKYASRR
Chain of KDR (human) (P35968 whole entry, looked up): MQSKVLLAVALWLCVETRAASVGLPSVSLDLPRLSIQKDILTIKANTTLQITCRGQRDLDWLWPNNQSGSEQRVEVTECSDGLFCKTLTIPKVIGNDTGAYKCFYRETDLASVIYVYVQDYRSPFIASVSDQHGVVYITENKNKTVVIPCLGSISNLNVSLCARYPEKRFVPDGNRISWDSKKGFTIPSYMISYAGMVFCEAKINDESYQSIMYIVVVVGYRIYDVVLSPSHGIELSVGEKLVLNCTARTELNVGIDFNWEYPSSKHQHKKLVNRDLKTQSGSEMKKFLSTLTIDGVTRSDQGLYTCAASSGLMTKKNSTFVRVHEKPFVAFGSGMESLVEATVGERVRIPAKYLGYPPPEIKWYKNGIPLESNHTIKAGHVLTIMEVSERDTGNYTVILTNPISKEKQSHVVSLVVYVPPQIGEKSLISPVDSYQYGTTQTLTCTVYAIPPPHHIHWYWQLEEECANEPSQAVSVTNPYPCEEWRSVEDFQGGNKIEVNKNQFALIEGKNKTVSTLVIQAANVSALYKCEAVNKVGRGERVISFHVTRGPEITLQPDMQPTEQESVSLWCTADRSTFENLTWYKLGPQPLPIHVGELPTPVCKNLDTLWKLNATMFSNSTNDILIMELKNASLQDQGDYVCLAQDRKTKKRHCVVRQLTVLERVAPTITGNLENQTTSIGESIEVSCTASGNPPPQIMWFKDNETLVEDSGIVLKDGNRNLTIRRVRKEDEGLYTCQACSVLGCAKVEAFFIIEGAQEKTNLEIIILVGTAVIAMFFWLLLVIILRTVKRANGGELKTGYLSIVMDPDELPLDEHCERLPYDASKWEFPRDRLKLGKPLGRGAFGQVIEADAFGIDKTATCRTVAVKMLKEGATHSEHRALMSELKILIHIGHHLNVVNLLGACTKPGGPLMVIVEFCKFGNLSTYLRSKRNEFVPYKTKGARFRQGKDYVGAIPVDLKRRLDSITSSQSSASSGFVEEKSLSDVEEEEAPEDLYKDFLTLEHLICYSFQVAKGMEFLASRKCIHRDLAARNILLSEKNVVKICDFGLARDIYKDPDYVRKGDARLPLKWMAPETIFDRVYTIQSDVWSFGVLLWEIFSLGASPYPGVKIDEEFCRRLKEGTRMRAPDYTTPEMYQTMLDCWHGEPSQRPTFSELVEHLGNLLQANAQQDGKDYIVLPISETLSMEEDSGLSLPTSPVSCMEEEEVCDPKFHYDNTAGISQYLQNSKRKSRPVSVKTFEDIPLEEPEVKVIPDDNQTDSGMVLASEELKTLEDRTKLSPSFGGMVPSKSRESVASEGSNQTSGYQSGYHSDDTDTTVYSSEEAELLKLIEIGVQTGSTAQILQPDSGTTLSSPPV

`Cc1ccc(NC(=O)c2ccc(NC(=O)/C=C/CN(C)C)cc2)cc1Nc1nccc(-c2cccnc2)n1` showed a kinase still bound, per cent of control (AAK1 (human)) of 63%, a kinase still bound, per cent of control (ANKK1 (human)) of 13% and a kinase still bound, per cent of control (AURKB (human)) of 86%. It also gave a kinase still bound, per cent of control (BLK (human)) of 60%, a kinase still bound, per cent of control (CDK14 (human)) of 100% and a kinase still bound, per cent of control (CDK3 (human)) of 100%. For the same compound, the kinase still bound, per cent of control (CDK4 CCND3 (human)) was 100%, the kinase still bound, per cent of control (CDK8 (human)) was 93% and the kinase still bound, per cent of control (CLK3 (human)) was 93%. The kinase still bound, per cent of control (CSK (human)) was 100%, the kinase still bound, per cent of control (EGFR (human)) was 62% and the kinase still bound, per cent of control (EPHB4 (human)) was 100%. The kinase still bound, per cent of control (ERBB3 (human)) was 100%, the kinase still bound, per cent of control (ERBB4 (human)) was 100% and the kinase still bound, per cent of control (HUNK (human)) was 25%. For the same compound, the kinase still bound, per cent of control (ICK (human)) was 82%, the kinase still bound, per cent of control (IRAK3 (human)) was 28% and the kinase still bound, per cent of control (KDR (human)) was 85%. For the same compound, the kinase still bound, per cent of control [1] was 3.4%, the kinase still bound, per cent of control (MAP2K3 (human)) was 50% and the kinase still bound, per cent of control (MAP2K7 (human)) was 100%. For the same compound, the kinase still bound, per cent of control (MAP3K10 (human)) was 100%, the kinase still bound, per cent of control (MAP3K13 (human)) was 89% and the kinase still bound, per cent of control (MAP4K4 (human)) was 78%. For the same compound, the kinase still bound, per cent of control (MAPK4 (human)) was 100%, the kinase still bound, per cent of control (MARK2 (human)) was 78% and the kinase still bound, per cent of control (MET (human)) was 100%. The kinase still bound, per cent of control (NEK5 (human)) was 51%, the kinase still bound, per cent of control (NIM1 (human)) was 92% and the kinase still bound, per cent of control (NTRK3 (human)) was 82%. The kinase still bound, per cent of control (PDGFRA (human)) was 0.4%, the kinase still bound, per cent of control (PDPK1 (human)) was 100% and the kinase still bound, per cent of control (PIK3CB (human)) was 100%. For the same compound, the kinase still bound, per cent of control (PIK3CD (human)) was 95%, the kinase still bound, per cent of control (PIP4K2C (human)) was 2% and the kinase still bound, per cent of control (PKMYT1 (human)) was 79%. The kinase still bound, per cent of control (PLK2 (human)) was 34%, the kinase still bound, per cent of control (PRKACB (human)) was 100% and the kinase still bound, per cent of control (PRKCQ (human)) was 100%. It also gave a kinase still bound, per cent of control (PRKX (human)) of 43%, a kinase still bound, per cent of control (RPS6KA4 KD2 (human)) of 64% and a kinase still bound, per cent of control (STK24 (human)) of 86%. The kinase still bound, per cent of control (TXK (human)) was 94%.
